Series [1] is described as follows: VTI moisture sorption isotherm (hygroscopicity). In kind it is physicochemical. Particulars: 25° C. The protocol:
(§1) Each salt was analyzed by coulometric titration using an EM Scientific Aquastar C3000 titrator to determine water content. […] Each salt was analyzed using a Perkin Elmer TGA 7 Thermal Gravimetric Analyzer (TGA). […] Moisture sorption isotherms for each salt were generated using the VTI SGA-100 Symmetric Vapor Sorption Analyzer. Samples were run as received without pre-analysis drying. Equilibrium criteria were the lesser of 0.01 wt % change in 5 minutes or 180 minutes at each relative humidity (RH) step. […] Analysis was repeated for each sample in consecutive analyses (sample was not removed from analyzer). Sample sizes ranged from 18 mg to 35 mg.

Series [2] is described as follows: Moisture content by coulometric Karl Fischer titration (KF). In kind it is physicochemical. On the procedure: as §1
A short description of series [3]: Thermal gravimetric analysis (TGA) weight loss. In kind it is physicochemical. Particulars: heated 25° C. to 325° C. at 10° C./min. The protocol:
The sixteen salts of transnorsertraline of Example 6.14 were analyzed for moisture content and hygroscopicity. Each salt was analyzed by coulometric titration using an EM Scientific Aquastar C3000 titrator to determine water content. Sample size ranged from 18 mg to 134 mg. Each salt was analyzed using a Perkin Elmer TGA 7 Thermal Gravimetric Analyzer (TGA). […] Moisture sorption isotherms for each salt were generated using the VTI SGA-100 Symmetric Vapor Sorption Analyzer. Samples were run as received without pre-analysis drying. Equilibrium criteria were the lesser of 0.01 wt % change in 5 minutes or 180 minutes at each relative humidity (RH) step. Temperature was fixed at 25° C. and the relative humidity steps (25 to 95% to 25%) were in 5% increments. Analysis was repeated for each sample in consecutive analyses (sample was not removed from analyzer). Sample sizes ranged from 18 mg to 35 mg.

Series [4] in a line: Solubility of transnorsertraline salts in aqueous buffer systems (SGF, acetate buffer pH 4.5, SIF; HPLC). In kind it is physicochemical. On the procedure:
Saturated solutions with excess solids were prepared in 20 mL clear glass scintillation vials. Simulated gastric fluid (pH 1.0, ˜0.1N HCl, 0.03M NaCl, no enzymes), simulated intestinal fluid (pH 6.8, 0.05M KH2PO4, ˜0.02N NaOH, no enzymes), and acetate buffer (pH 4.5, 0.02M sodium acetate, 0.03M acetic acid) were prepared in accordance with USP28 (USP28 Test Solutions p2855, Volumetric Solutions p2863). […] Solubility was determined using a HPLC method.

Series [5] in a line: Solubility of transnorsertraline salts in de-ionized water (HPLC). To be noted: for Solubility in Freebase Equivalents mgA/mL: de-ionized water, ambient, shaken up to nine days until equilibrium; for pH: saturated solution in de-ionized water. The protocol:
For each salt, saturated solutions with excess solids in deionized water were prepared in 20 mL clear glass scintillation vials with screw caps. All samples were shaken at 300 rpm at ambient conditions for up to nine days until equilibrium was achieved. Solubility was determined using a HPLC method (Table 5).

A short description of series [6]: Open dish excipient compatibility study Set 1a/1b (Active 1 with single excipients), 40° C./75% RH, 3 weeks, % impurities. In kind it is physicochemical. On the procedure: A Zorban SB-CN […], 25 cm×4.6 mm analytical column using a 0.05% trifluoroacetic acid in a 80:20 water:acetonitrile solution (Mobile Phase A) followed by a 0.05% trifluoroacetic acid in a 15:85 water:acetonitrile solution (Mobile Phase B) was used. Column temperature: 30° C. The flow rate: 1.0 mL/min. Injection volume: 50 μL. Wavelength: 220 nm. Minimum run time: 50 min (15 min delay). Mobile Phase gradient: […]
Transnorsertraline HCl (1) (“Active 1”) was mixed with each excipient present in 1 mg capsule strength respectively. The samples contained two different ratios (1:1 and as in the 1 mg capsules) of active and excipients.

Where [7] appears, read: repeated consecutive analysis (second line).
Where [8] appears, read: 0.05M Acetate Buffer (pH 4.5), ambient, up to nine days.
The mark [9] stands for this setting: Simulated Gastric Fluid (no enzymes), ambient, up to nine days.
Where [10] appears, read: Simulated Intestinal Fluid (pH 6.8, no enzymes), ambient, up to nine days.
The mark [11] stands for this setting: saturated solution in 0.05M Acetate Buffer (pH 4.5).
[12] abbreviates: saturated solution in Simulated Gastric Fluid.
Where [13] appears, read: saturated solution in Simulated Intestinal Fluid.
[14] abbreviates: Set 1a, active:excipient 1:1, open dish 40° C./75% RH.
Where [15] appears, read: Set 1b, active:excipient ratio as in 1 mg capsules, open dish 40° C./75% RH.

Bounds are passed on as bounds.

For the molecule `N[C@@H]1CC[C@@H](c2ccc(Cl)c(Cl)c2)c2ccccc21.O=C1CC[C@@H](C(=O)O)N1`, the “VTI Adsorp. (% wt gain 25 to 95% RH)” value in series [1] (first analysis) is given as 17.28 % wt gain. In addition, in series [2], the “Initial KF (% H2O)” value is 0.10 % H2O.
For the molecule `O=S(=O)(O)O` [Sulfate], in series [3], the “TGA (% wt loss)” value is listed as 4.20 % wt loss. Also, in series [1] (first analysis), the “VTI Adsorp. (% wt gain 25 to 95% RH)” value is 10.19 % wt gain and the “VTI Desorp. (% wt loss 95 to 25% RH)” value is 9.51 % wt loss. Moreover, the “VTI Adsorp. (% wt gain 25 to 95% RH)” value in series [1] (setting [7]) is on record as 7.25 % wt gain. Moreover, in series [2], the “Initial KF (% H2O)” value is recorded as 3.34 % H2O.
For the molecule Benzoate, in series [3], the “TGA (% wt loss)” value is 0.05 % wt loss. Moreover, in series [1] (first analysis), the “VTI Adsorp. (% wt gain 25 to 95% RH)” value worked out at 0.10 % wt gain and the “VTI Desorp. (% wt loss 95 to 25% RH)” value was 0.10 % wt loss. Besides, in series [1] (setting [7]), the “VTI Adsorp. (% wt gain 25 to 95% RH)” value was 0.08 % wt gain and the “VTI Desorp. (% wt loss 95 to 25% RH)” value is 0.07 % wt loss. For the same molecule, in series [2], the “Initial KF (% H2O)” value is on record as 0.27 % H2O.
For Citrate, the “VTI Adsorp. (% wt gain 25 to 95% RH)” value in series [1] (first analysis) was found to be 2.59 % wt gain; in series [1] (setting [7]) it was 3.24 % wt gain. Also, the results for the “VTI Desorp. (% wt loss 95 to 25% RH)” value in series [1] (first analysis) and in series [1] (setting [7]) were 3.96 % wt loss and 3.61 % wt loss, respectively. For the same molecule, the “Initial KF (% H2O)” value in series [2] is 0.31 % H2O.
Take Fumarate: the “Solubility in Freebase Equivalents mgA/mL” value in series [4] (setting [8]) is 0.69 mgA/mL; in series [4] (setting [9]), less than 0.01 mgA/mL; in series [4] (setting [10]), 0.30 mgA/mL; in series [5], 0.52 mgA/mL. Also, the pH in series [4] (setting [11]) was 4.60; in series [4] (setting [12]), 1.25; in series [4] (setting [13]) it was 6.63; in series [5] it was 5.30. The “TGA (% wt loss)” value in series [3] is reported as 0.81 % wt loss. For the same molecule, the “VTI Adsorp. (% wt gain 25 to 95% RH)” value in series [1] (first analysis) worked out at 0.18 % wt gain; in series [1] (setting [7]), 0.17 % wt gain. Further, the figures for the “VTI Desorp. (% wt loss 95 to 25% RH)” value in series [1] (first analysis) and in series [1] (setting [7]) were 0.17 % wt loss and 0.16 % wt loss, respectively. Moreover, the “Initial KF (% H2O)” value in series [2] came out at 0.40 % H2O.
Take L-tartrate: the pH in series [4] (setting [11]) is given as 4.58; in series [4] (setting [12]), 1.24; in series [4] (setting [13]) it was 6.73; in series [5] it was 2.63. The figures for the “VTI Adsorp. (% wt gain 25 to 95% RH)” value in series [1] (first analysis) and in series [1] (setting [7]) were 3.52 % wt gain and 1.37 % wt gain, respectively. For the same molecule, the “VTI Desorp. (% wt loss 95 to 25% RH)” value in series [1] (first analysis) is reported as 1.36 % wt loss. Moreover, the “Initial KF (% H2O)” value in series [2] was 0.62 % H2O.
For the molecule Maleate, the “Solubility in Freebase Equivalents mgA/mL” value in series [4] (setting [8]) is on record as 1.23 mgA/mL; in series [4] (setting [9]), 0.08 mgA/mL; in series [4] (setting [10]), 0.28 mgA/mL; in series [5], 1.88 mgA/mL. Further, the pH in series [4] (setting [11]) is 4.52; in series [4] (setting [12]) it was 1.25; in series [4] (setting [13]) it was 6.47; in series [5] it was 3.98. For the same molecule, the “TGA (% wt loss)” value in series [3] amounted to 0.02 % wt loss. For the same molecule, the “VTI Adsorp. (% wt gain 25 to 95% RH)” value was 0.10 % wt gain in series [1] (first analysis) and 0.08 % wt gain in series [1] (setting [7]). For the same molecule, the entries for the “VTI Desorp. (% wt loss 95 to 25% RH)” value in series [1] (first analysis) and in series [1] (setting [7]) were 0.09 % wt loss and 0.08 % wt loss, respectively. Moreover, in series [2], the “Initial KF (% H2O)” value worked out at 0.06 % H2O.
With Phosphate, the “Solubility in Freebase Equivalents mgA/mL” value is listed as less than 0.01 mgA/mL in series [4] (pH 1), 2.63 mgA/mL in series [4] (pH 4.5) and 0.27 mgA/mL in series [4] (pH 6.8). Moreover, the pH in series [4] (setting [11]) is given as 4.55; in series [4] (setting [12]), 1.24; in series [4] (setting [13]), 6.49; in series [5] it was 3.27. The results for the “VTI Adsorp. (% wt gain 25 to 95% RH)” value in series [1] (first analysis) and in series [1] (setting [7]) were 3.00 % wt gain and 2.14 % wt gain, respectively. The “VTI Desorp. (% wt loss 95 to 25% RH)” value in series [1] (first analysis) is given as 1.37 % wt loss; in series [1] (setting [7]), 1.20 % wt loss. The “Initial KF (% H2O)” value in series [2] is 0.16 % H2O.
Consider S-mandelate, for which the “VTI Adsorp. (% wt gain 25 to 95% RH)” value amounted to 3.24 % wt gain in series [1] (first analysis) and 3.79 % wt gain in series [1] (setting [7]). Besides, the “VTI Desorp. (% wt loss 95 to 25% RH)” value in series [1] (first analysis) was 3.95 % wt loss; in series [1] (setting [7]), 3.02 % wt loss. For the same molecule, the “Initial KF (% H2O)” value in series [2] worked out at 0.32 % H2O.
With Succinate, the pH is given as 4.50 in series [4] (setting [11]), 1.27 in series [4] (setting [12]), 6.46 in series [4] (setting [13]) and 3.89 in series [5]. For the same molecule, the “VTI Adsorp. (% wt gain 25 to 95% RH)” value in series [1] (first analysis) is listed as 3.25 % wt gain. In series [1] (first analysis), the “VTI Desorp. (% wt loss 95 to 25% RH)” value is reported as 3.17 % wt loss. For the same molecule, the “Initial KF (% H2O)” value in series [2] stood at 1.03 % H2O.
For Tosylate, the “Solubility in Freebase Equivalents mgA/mL” value in series [4] (setting [8]) is listed as 0.63 mgA/mL; in series [4] (setting [9]), 0.06 mgA/mL; in series [4] (setting [10]), 0.21 mgA/mL; in series [5], 0.53 mgA/mL. Also, the pH in series [4] (setting [11]) was 4.56; in series [4] (setting [12]), 1.10; in series [4] (setting [13]), 6.78; in series [5], 6.16. Besides, the “TGA (% wt loss)” value in series [3] is listed as 0.16 % wt loss. Besides, the “VTI Adsorp. (% wt gain 25 to 95% RH)” value in series [1] (first analysis) came to 0.06 % wt gain. Also, the “VTI Desorp. (% wt loss 95 to 25% RH)” value in series [1] (first analysis) is given as 0.06 % wt loss. In series [2], the “Initial KF (% H2O)” value was determined as 0.09 % H2O.
Consider Transnorsertraline HCl [active 1], for which, in series [6] (setting [14]), the “% Active” value worked out at 99.68%; the “% Impurities, peak RRT 0.764” value came to 0.05%; the “% Impurities, peak RRT 0.862, Synthetic Impurity 1” value is recorded as 0.04%; the “% Impurities, peak RRT 0.885, Synthetic Impurity 2” value is recorded as 0.05%. In series [6] (setting [14]), the “% Impurities, peak RRT 1.07, cis-diastereomer” value was 0.12%; the “% Impurities, peak RRT 1.386” value turned out to be 0.07%; the “% Total Impurities” value is recorded as 0.33%. In series [6] (Set 1a, ratio of active to excipient 1:1, 40° C./75% RH), the “impurities formed due to the presence of excipients” value was “no appreciable impurities formed”. For the same molecule, in series [6] (setting [15]), the “% Active” value came to 99.68%; the “% Impurities, peak RRT 0.764” value amounted to 0.05%; the “% Impurities, peak RRT 0.862, Synthetic Impurity 1” value is listed as 0.04%; the “% Impurities, peak RRT 0.885, Synthetic Impurity 2” value is reported as 0.05%. In addition, in series [6] (setting [15]), the “% Impurities, peak RRT 1.07, cis-diastereomer” value was 0.12%; the “% Impurities, peak RRT 1.386” value is recorded as 0.07%; the “% Total Impurities” value was determined as 0.33%.

(Values after US8957114B2, “Formulations, salts and polymorphs of transnorsertraline and uses thereof” (Sunovion Pharmaceuticals Inc., priority 2009, dated 2015).)
